According to US11974990B2, “TXNIP-TRX complex inhibitors and methods of using the same” (City of Hope, priority 2018, dated 2024):
Read-outs that look alike come from different tables or passages of the source.

Columns and labels:
[1] = system: TXNIP mRNA; assay: TXNIP mRNA expression (RT-PCR) in THP1 cells under 25 mM glucose; type: cell-based, human; conditions: THP1, 25 mM glucose, 5 uM compound, 72 h / three days (FIG. 13)
Method: FIGS. 9A-9B. FIG. 9A. […] THP1 cells were cultured in 25 mM glucose with the indicated concentrations of C1 for 72 h. Cell were collected for total RNA preparation. RT-PCR were performed and data shown are the mean+SEM from triplicates. Statistical analysis was performed using one-way ANOVA, *<0.0001. FIG. 9B. […] THP1 cells were cultured in 25 mM glucose and C1 (uM) as indicated for 72 hours and collected for total RNA preparation. RT-PCR was performed. Data shown are the mean+SEM from triplicates. Statistical analysis was performed using one-way ANOVA: *<0.02; **<0.0001.
FIG. 13. C1 analogs affects TXNIP mRNA expression in THP1 cells. THP1 cells were cultured in 25 mM glucose with 5 uM of compounds for 72 h. Total RNA was collected and RT-PCR was performed in triplicate and data shown are the mean+SEM. Statistical analysis was performed using one-way ANOVA: *<0.0001.
RNA extraction and quantitative RT-PCR. RNA was extracted using the Direct-zol™ RNA MiniPrep Plus (Zymo Research). […] Diluted cDNA was quantified using real-time PCR performed with Power SYBR Green qPCR MasterMix (Applied Biosystem) and 7500 real-time PCR system (Applied Biosystems). […]
RNA extraction and quantitative RT-PCR. […] Diluted cDNA was quantified using real-time PCR performed with Power SYBR Green qPCR MasterMix (Applied Biosystem) and 7500 real-time PCR system (Applied Biosystems). […]

[2] = target: T1, TXNIP-TRX complex (Homo sapiens, UniProt Q9H3M7); assay: Co-IP of TXNIP with TRX in THP1 monocytes treated with compounds under high glucose; type: cell-based; conditions: THP1 cells, compounds added to cells in culture overnight, glucose to 25 mM, 72-96 h; anti-TRX IP
T1 construct: Co-immunoprecipitation (Co-IP) of TXNIP with TRX in THP 1 monocytes cells treated with compounds under high glucose condition; endogenous in cells; host or cells: THP1 human monocytes cultured in 25 mM glucose
T1 sequence (Q9H3M7 1-391): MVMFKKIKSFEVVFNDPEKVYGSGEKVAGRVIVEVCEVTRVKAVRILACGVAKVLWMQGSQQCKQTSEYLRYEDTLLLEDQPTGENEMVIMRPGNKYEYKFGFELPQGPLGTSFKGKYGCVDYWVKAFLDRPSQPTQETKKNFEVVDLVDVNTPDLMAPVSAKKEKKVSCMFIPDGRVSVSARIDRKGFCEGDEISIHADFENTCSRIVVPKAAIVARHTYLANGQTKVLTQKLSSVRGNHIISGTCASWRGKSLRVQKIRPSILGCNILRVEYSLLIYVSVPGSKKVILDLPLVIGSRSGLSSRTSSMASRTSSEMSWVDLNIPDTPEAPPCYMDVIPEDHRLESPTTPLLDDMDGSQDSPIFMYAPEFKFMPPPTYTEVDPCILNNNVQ
Method: FIGS. 4A-4B. Co-IP with anti-TRX in THP 1 cells treated with compounds under high glucose condition. THP1 cells were treated by 10 uM compounds over night, then glucose was added up to 25 mM. The cells were cultured for 72-96 h. Cell extracts were prepared using cell extract buffer (Thermo Fisher Scientific) and Co-IP were performed with mouse anti-TRX (abcam).
Assay 1: Co-immunoprecipitation (Co-IP) of TXNIP with TRX in THP 1 monocytes cells treated with compounds under high glucose condition. In this assay, we looked for compounds that can interfere with the interaction between TXNIP and TRX in THP-1 monocytes treated with HG. So here compounds are added to cells in culture. […] So we picked the candidates only if the results are repeatable.
Co-IP with compounds treated THP1 under high glucose condition. THP1 cells were treated with compounds (2.5 uM) overnight and glucose was add to 25 mM and culture for 3-5 days, then coIP were carried using co-IP protocol.
(§1) 1. Transfer the cultured cells from the culture dish to a 15-mL conical tube. 2. Centrifuge at 500×g for 2 min at 4° C. and remove the supernatant. 3. Wash with ice-cold PBS and centrifuge at 500×g for 2 min at 4° C. Remove the supernatant. 4. Repeat Step 3 twice.
5. Resuspend the cell pellet in ice-cold cell lysis buffer (1 mL per 1×10^7 cells) and incubate on ice for 10 min. 6. Sonicate cells in ice bath three times for 5 second pulses each. 7. Centrifuge at 13,000×g at 4° C. for 10 min, and transfer the supernatant to a fresh tube. Store the tube on ice for further use, or for long storage at −80° C.
8. Resuspend the magnetic beads by pipetting up and down for several times. 9. Transfer 20 μL of bead slurry to a fresh tube. Place the tube in a magnetic separation rack […]. Carefully remove the supernatant once the solution is clear. 10. […]
(§2) Note: Pre-clearing the lysate is recommended to reduce the non-specific binding. However, if the protein is detected by western blotting, pre-clearing may not be necessary unless a contaminating protein is interfering with visualization of the protein of interest. […]

[3] = target: T1, TXNIP-TRX complex; assay: Co-IP using extracts from high glucose treated THP1 cells in the presence of compounds; type: biochemical; conditions: extracts of THP1 cells treated with 25 mM glucose 3 days; compounds added to extract (5 uM)
Method: Assay 2: Co-IP using extracts from THP 1 cells treated high glucose and in the presence of compounds. In this assay, TXNIP is already highly expressed (because the cells are treated with HG), we assume there is high concentration of TXNIP/TRX complexes in the cell extract. Co-IPs were done in these extracts through adding TRX antibody and compounds. If a compound is able to break the (pre-formed) TXNIP/TRX complex, there will be a reduced signal (band intensity) in the assay.
Co-IP with THP1 high glucose treated extract in the presence of the compounds. THP1 cells were treated with 25 mM glucose for 3 days, the cell extract were prepared. Them 300 ul extract were used for TP. Compounds were added to 5 uM Co-IP were followed according to the Co-IP protocol.
as §1
5. Resuspend the cell pellet in ice-cold cell lysis buffer (1 mL per 1×10^7 cells) and incubate on ice for 10 min. 6. […]
as §2

[4] = system: TXNIP; conditions: as reported in the literature, cited from earlier work

Structure (SMILES)	TXNIP mRNA expression [1]	HG-induced TXNIP-TRX co-IP band intensity [2]	effect on pre-formed TXNIP/TRX complex (co-IP band intensity) [3]	TXNIP expression [4]	TXNIP expression ([4]; listed as Metformin)
CC(=O)Nc1ccc(NC(=O)C(C)N2C(=O)c3ccncc3C2=O)cc1 (centres unmarked) [Compound A31]	displayed significant inhibitory effects on TXNIP mRNA expression				
CN(C)C(=N)N=C(N)N [metformin, reference compound]		reduces the intensity of the band showing TXNIP-TRX binding	does not have any effect on TXNIP/TRX complex	reduce TXNIP expression	can reduce the expression of TXNIP through the AMPK pathway
